Consider 5 compounds from PubChem BioAssay AID1259411 (Chemical Carcinogenesis Research Information System (CCRIS), 2018).

The subject of this data set is rodent carcinogenicity bioassays, tumor incidence. As to the kind of experiment: CCRIS carcinogenicity studies. In a few lines: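 Archive of carcinogenicity, mutagenicity, tumor promotion and tumor inhibition results drawn from journals, NCI reports and other sources, expert-reviewed; covers 1985-2011 and is no longer updated.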

Each structure is given as a SMILES string. Activity calls are given as the source filed them. The rule behind the calls is not given here.

As to `ClC1=C(Cl)[C@]2(Cl)[C@@H]3[C@@H]4C[C@@H]([C@H]5O[C@@H]45)[C@@H]3[C@@]1(Cl)C2(Cl)Cl`, the carcinogen call was “inactive; negative” (Species: MOUSE, Strain/Sex: B6C3F1/FEMALE, Route: ORAL, Dose: 0, 2.5, 5 PPM IN DIET FOR 80 WK (STUDY DURATION: 90-93 WK), Dose: 0, 2.5, 5 PPM IN DIET FOR 80 WK (STUDY DURATION: 90-93 WK)); “equivocal” (Species: MOUSE, Strain/Sex: B6C3F1/MALE, Route: ORAL, Dose: 0, 2.5, 5 PPM IN DIET FOR 80 WK (STUDY DURATION: 90-93 WK), Dose: 0, 2.5, 5 PPM IN DIET FOR 80 WK (STUDY DURATION: 90-93 WK), Tumor Site: Type of Lesion: LIVER: HEPATOCELLULAR CARCINOMA); “active; positive” (Species: MOUSE, Strain/Sex: B6C3F1/MALE, Route: ORAL, Dose: 0, 2.5, 5 PPM IN DIET FOR 80 WK (STUDY DURATION: 91-93 WK), Dose: 0, 2.5, 5 PPM IN DIET FOR 80 WK (STUDY DURATION: 91-93 WK), Tumor Site: Type of Lesion: LIVER: HEPATOCELLULAR CARCINOMA); “active; positive” (Species: MOUSE, Strain/Sex: B6C3F1/MALE, Route: ORAL, Dose: 0, 10 PPM IN DIET FOR 85 WK (STUDY DURATION: 132 WK), Tumor Site: Type of Lesion: LIVER: TUMORS); “active; positive” (Species: MOUSE, Strain/Sex: BALB/MALE, Route: ORAL, Dose: 0, 10 PPM (WT/WT) IN CORN OIL ADDED TO DIET FOR 75 WK (STUDY DURATION: 75 WK), Tumor Site: Type of Lesion: LIVER: HEPATOCELLULAR ADENOMA, HEPATOCELLULAR CARCINOMA); “active; positive” (Species: MOUSE, Strain/Sex: C3H/MALE, Route: ORAL, Dose: 0, 10 PPM IN DIET FOR 85 WK (STUDY DURATION: 132 WK), Tumor Site: Type of Lesion: LIVER: TUMORS). Also, the carcinogen call runs as follows: (Species: MOUSE, Strain/Sex: C57BL/MALE, Route: ORAL, Dose: 0, 10 PPM IN DIET FOR 85 WK (STUDY DURATION: 132 WK), Tumor Site: Type of Lesion: LIVER: TUMORS) “active; positive”; (Species: MOUSE, Strain/Sex: CF-1/MALE,FEMALE, Route: ORAL, Dose: 0, 0.1, 1, 2.5, 5, 10, 20 PPM IN DIET CONTINUOUSLY, Dose: 0, 0.1, 1, 2.5, 5, 10, 20 PPM IN DIET CONTINUOUSLY, Tumor Site: Type of Lesion: LIVER) “active; positive”; (Species: MOUSE, Strain/Sex: CF-1/MALE,FEMALE, Route: ORAL, Dose: 0, 0.1, 1.0, 10 PPM IN DIET FOR 132 WK, Dose: 0, 0.1, 1.0, 10 PPM IN DIET FOR 132 WK, Tumor Site: Type of Lesion: LIVER) “active; positive”; (Species: MOUSE, Strain/Sex: CF-1/MALE,FEMALE, Route: ORAL, Dose: 0, 1.25, 2.5, 5, 10, 20 PPM IN DIET FOR 128 WK, Dose: 0, 1.25, 2.5, 5, 10, 20 PPM IN DIET FOR 128 WK, Tumor Site: Type of Lesion: LIVER) “active; positive”; (Species: MOUSE, Strain/Sex: CF-1/MALE,FEMALE, Route: ORAL, Dose: 0, 10 PPM IN DIET FOR 2 YR OR MORE, Tumor Site: Type of Lesion: LIVER) “active; positive”; (Species: MOUSE, Strain/Sex: CF-1/MALE,FEMALE, Route: ORAL, Dose: 0, 10 PPM IN DIET FOR UP TO 110 WK, Tumor Site: Type of Lesion: LIVER: HEPATOCELLULAR TUMOR) “active; positive”. In addition, the carcinogen call is “active; positive” (Species: MOUSE, Strain/Sex: CF-1/MALE,FEMALE, Route: ORAL, Dose: 10 PPM IN DIET FOR 0, 2, 4, 8, 16, 32 OR 64 WK, Tumor Site: Type of Lesion: LIVER: HEPATOCELLULAR TUMOR); “inactive; negative” (Species: RAT, Strain/Sex: OSBORNE-MENDEL/FEMALE, Route: ORAL, Dose: 0, 29, 65 PPM TWA, IN DIET FOR 59-80 WK (STUDY DURATION: 110-111 WK), Dose: 0, 29, 65 PPM TWA, IN DIET FOR 59-80 WK (STUDY DURATION: 110-111 WK)); “inactive; negative” (Species: RAT, Strain/Sex: OSBORNE-MENDEL/MALE, Route: ORAL, Dose: 0, 29, 65 PPM TWA, IN DIET FOR 59-80 WK (STUDY DURATION: 110-111 WK), Dose: 0, 29, 65 PPM TWA, IN DIET FOR 59-80 WK (STUDY DURATION: 110-111 WK)).

Regarding `O=C1c2ccccc2C(=O)N1SC(Cl)(Cl)Cl`, the carcinogen call was “active; positive” (Species: MOUSE, Strain/Sex: B6C3F1/FEMALE, Route: ORAL, Dose: 0, 1000, 5000, 10000 PPM IN DIET FOR 104 WK (STUDY DURATION: 104 WK), Dose: 0, 1000, 5000, 10000 PPM IN DIET FOR 104 WK (STUDY DURATION: 104 WK), Tumor Site: Type of Lesion: DUODENUM: CARCINOMA OR ADENOMA); “active; positive” (Species: MOUSE, Strain/Sex: B6C3F1/MALE, Route: ORAL, Dose: 0, 1000, 5000, 10000 PPM IN DIET FOR 104 WK (STUDY DURATION: 104 WK), Dose: 0, 1000, 5000, 10000 PPM IN DIET FOR 104 WK (STUDY DURATION: 104 WK), Tumor Site: Type of Lesion: NON-GLANDULAR STOMACH: PAPILLOMA OR SQUAMOUS CELL CARCINOMA, DUODENUM: CARCINOMA OR ADENOMA); “active; positive” (Species: Mouse, Strain/Sex: B6C3F1/Female (52/Group), Route: Oral, Dose: 0, 1000, 5000/3500, 10,000/7000 ppm (doses reduced at wk 21) of 88-89% folpet in diet for 2 yr, study duration 2 yr, Dose: 0, 1000, 5000/3500, 10,000/7000 ppm (doses reduced at wk 21) of 88-89% folpet in diet for 2 yr, study duration 2 yr, Tumor Site: Type of Lesion: Stomach: papilloma and squamous cell carcinoma combined (2, 2, 5, 7). Duodenum: adenomas and carcinomas (1, 2, 10, 19).); “active; positive” (Species: Mouse, Strain/Sex: B6C3F1/Male (52/Group), Route: Oral, Dose: 0, 1000, 5000/3500, 10,000/7000 ppm (doses reduced at wk 21) of 88-89% folpet in diet for 2 yr, study duration 2 yr, Dose: 0, 1000, 5000/3500, 10,000/7000 ppm (doses reduced at wk 21) of 88-89% folpet in diet for 2 yr, study duration 2 yr, Tumor Site: Type of Lesion: Stomach: papilloma and squamous cell carcinoma combined (0, 2, 6, 3). Duodenum: adenomas and carcinomas (0, 4, 17, 25)); “inactive; negative” (Species: Rat, Strain/Sex: Strain not specified in Department of Pesticides Regulation report /Female (60/Group), Route: Oral, Dose: 0, 200, 800, 3200 ppm of 89.5% folpet in diet for 105 wk, study duration 105 wk, Dose: 0, 200, 800, 3200 ppm of 89.5% folpet in diet for 105 wk, study duration 105 wk); “inactive; negative. increased incidence of thyroid tumors judged by reviewers as equivocal” (Species: Rat, Strain/Sex: Strain not specified in Department of Pesticides Regulation report /Male (60/Group), Route: Oral, Dose: 0, 200, 800, 3200 ppm of 89.5% folpet in diet for 105 wk, study duration 105 wk, Dose: 0, 200, 800, 3200 ppm of 89.5% folpet in diet for 105 wk, study duration 105 wk).

Regarding `CNC(=O)Oc1cccc2ccccc12`, the carcinogen call was “inactive; negative” (Species: MOUSE, Strain/Sex: SWISS/FEMALE, Route: DERMAL, Dose: 0, 100 MG/KG IN 100 µL ACETONE 3/WK FOR 52 WK (STUDY DURATION: 52 WK)); “active; positive (purity 99.3%; study details not given in source; mtd may have been exc” (Species: Mouse, Strain/Sex: CD-1/Female (70/group), Route: Oral, Dose: 0, 100, 1,000, 8,000 ppm in feed for 104 wk, Dose: 0, 100, 1,000, 8,000 ppm in feed for 104 wk, Tumor Site: Type of Lesion: BLOOD VESSELS: Hemangiosarcoma and hemangioma (high dose only). LIVER: Hepatocellular adenoma and carcinoma (high dose o); “active; positive (purity 99.3%; study details not given in source; neoplastic lesions co” (Species: Mouse, Strain/Sex: CD-1/Male (70/group), Route: Oral, Dose: 0, 100, 1,000, 8,000 ppm in feed for 104 wk, Dose: 0, 100, 1,000, 8,000 ppm in feed for 104 wk, Tumor Site: Type of Lesion: BLOOD VESSELS: Hemangiosarcoma and hemangioma (all doses). KIDNEY: Renal tubular cell adenoma and carcinoma (high dose o); “active; positive” (Species: RAT, Strain/Sex: SWISS, Route: GAVAGE, Dose: 0, 30 MG/KG BW, 1/D FOR UP TO 22 MO, Tumor Site: Type of Lesion: INTESTINES: FIBROSARCOMA, BONE: OSTEOSARCOMA); “active; positive at the high dose level (purity 99%; study details not given in source)” (Species: Rat, Strain/Sex: Sprague-Dawley/Male (50/control and high-dose group and 40 per low-and mid-dose group), Route: Oral, Dose: 0, 250, 1,500, 7,500 ppm in feed for 104 wk, Dose: 0, 250, 1,500, 7,500 ppm in feed for 104 wk, Tumor Site: Type of Lesion: URINARY BLADDER: papilloma and carcinoma at highest dose. KIDNEY: one transitional cell carcinoma. LIVER: adenoma. THYRO).

`CCC1(c2ccccc2)C(=O)NC(=O)NC1=O`: where the note is “Species: MOUSE, Strain/Sex: 6HF1/MALE, Route: ORAL, Dose: 0, 0.05% IN BASAL DIET FOR 104 WK (STUDY DURATION: 104 WK), Tumor Site: Type of Lesion: LIVER: TUMOR”, the carcinogen call is “active; positive”.

Take `O[C@H]1C=Cc2cc3ccc4ccccc4c3nc2[C@@H]1O`: the carcinogen call by setting is: (Species: MOUSE, Strain/Sex: SWISS/FEMALE, Route: INTRAPERITONEAL, Dose: 0, 1.05 UMOL GIVEN AS 150 NMOL IN 5 µL DMSO WITHIN 24 HR OF BIRTH, 300 NMOL IN 10 µL DMSO ON D 8 OF LIFE, AND 600 NMOL I, Tumor Site: Type of Lesion: LUNG: ADENOMA) “active; positive”; (Species: MOUSE, Strain/Sex: SWISS/MALE, Route: INTRAPERITONEAL, Dose: 0, 1.05 UMOL GIVEN AS 150 NMOL IN 5 µL DMSO WITHIN 24 HR OF BIRTH, 300 NMOL IN 10 µL DMSO ON D 8 OF LIFE, AND 600 NMOL I, Tumor Site: Type of Lesion: LUNG: ADENOMA, LIVER: NEOPLASTIC NODULE) “active; positive”.
